According to patent US5693324A, “Tris(isonitrile) copper(I) sulfates for preparing radionuclide complexes” (The DuPont Merck Pharmaceutical Company, priority 1995, dated 1997):

Experiment: water solubility of tris(isonitrile)copper(I) complexes
Format: physicochemical

water solubility, relative (compared with the tris(isonitrile)copper(I) adducts of U.S. Pat. No. 4,885,100): more soluble
water solubility (sulfate complexes of the present invention, in water): > 100 mg/mL
Structure (SMILES): O=S(=O)([O-])[O-].[C-]#[N+]CC(C)(C)OC.[C-]#[N+]CC(C)(C)OC.[C-]#[N+]CC(C)(C)OC.[C-]#[N+]CC(C)(C)OC.[C-]#[N+]CC(C)(C)OC.[C-]#[N+]CC(C)(C)OC.[Cu+].[Cu+] [[Cu(MIBI)3]2 [SO4], tris(1-isocyano-2-methoxy-2-methylpropane)copper(I) sulfate]
